# Starred links: 1 amine or outer side, 2 acyl side, 3 side chain; linkers in the order of their positions; H or OH if unused. Positions of bridges follow the written chain, without caps; N, C: chain ends. Non-standard residues stand in square brackets, D forms with d. Residues, ends and D or L forms follow the SMILES beside them. Chains are numbered I, II in the order given. Actinocin(9to1) = Cc1c2oc3c(C)ccc(C(=O)[*:1])c3nc-2c(C(=O)[*:2])c(N)c1=O; NMeV = CN[C@H](C(=O)O)C(C)C; Sar = CNCC(=O)O
# What was measured:
# syntaxin-1A [1] = experiment: Syntaxin-1A expression in untransfected HEK293 cells treated with agents that alter intracellular calcium; type: cell-based; conditions: for syntaxin-1A mRNA levels: untransfected cells / absence of α1A transfection
# syntaxin-1A [2] = experiment: Syntaxin-1A expression in cerebellar granule cells (endogenous P/Q type channels); type: cell-based
# Experimental: The foregoing results in HEK293 transfected cells were correlated with the endogenous P/Q type channels in neurons. Syntaxin-1A is basally expressed in cerebellar granule cells, but this is inhibited by ω Agatoxin IVA, which is known to inhibit calcium P/Q type channels specifically. […] Treatment of these cerebellar granule cells, which had been incubated in ω Agatoxin IVA with thapsigargin recovered the syntaxin-1A expression.
# Syntaxin-1A expression was inhibited by the same agents as had inhibited it in HEK293 cells including inhibitors of ryanodine —or IP3—induced calcium release from stores, of CaM kinase II/IV, and of PKA, or MAPKK.
# syntaxin-1A [3] = experiment: Syntaxin-1A expression (mRNA/protein) in HEK293 cells transfected with the α1A P/Q type calcium channel; type: cell-based, human; conditions: for calcium dependent induction of syntaxin-1A: α1A transfected cells
compound,measurement,setting,value
C[N+](C)(C)CCOC(N)=O [carbachol],calcium release from ryanodine- and IP3-sensitive stores,syntaxin-1A [1]; untransfected cells,activated
same,syntaxin-1A mRNA levels,syntaxin-1A [1],stimulated
C/C=C(/C)C(=O)O[C@H]1C(C)=C2[C@H]([C@@H]1OC(=O)CCCCCCC)[C@@](C)(OC(C)=O)C[C@H](OC(=O)CCC)[C@@]1(O)[C@H]2OC(=O)[C@@]1(C)O [thapsigargin],syntaxin-1A expression after P/Q block,syntaxin-1A [2]; cerebellar granule cells which had been incubated in ω Agatoxin IVA,recovered
same,syntaxin-1A expression,syntaxin-1A [1]; untransfected cells,stimulated
CC(=O)OCOC(=O)CN(CCOCCOCCN(CC(=O)OCOC(C)=O)CC(=O)OCOC(C)=O)CC(=O)OCOC(C)=O [EGTA-AM],calcium dependent induction of syntaxin-1A,syntaxin-1A [3],blocked
"Cc1c2oc3c(C)ccc(C(=O)N[C@@H]4C(=O)N[C@H](C(C)C)C(=O)N5CCC[C@H]5C(=O)N(C)CC(=O)N(C)[C@@H](C(C)C)C(=O)O[C@@H]4C)c3nc-2c(C(=O)N[C@@H]2C(=O)N[C@H](C(C)C)C(=O)N3CCC[C@H]3C(=O)N(C)CC(=O)N(C)[C@@H](C(C)C)C(=O)O[C@@H]2C)c(N)c1=O [actinomycin D] (I: T[dV]P[Sar][NMeV] / II: T[dV]P[Sar][NMeV]; ester I:1-I:C, II:1-II:C; linker I:N-II:N via Actinocin(9to1))",mRNA corresponding to syntaxin-1A,syntaxin-1A [3]; HEK293 cells transfected with the α1A P/Q type calcium channel,inhibited
C[C@H](CCC(=O)O)C[C@H](C)C[C@H](C)C(=O)/C=C(\O)[C@H](C)C[C@H](C)C/C=C/[C@@H](C)[C@@H](O)[C@@H](C)[C@@H](O)C[C@@H]1CC[C@@](C)([C@H]2CC[C@@](C)([C@@H](C)O)O2)O1 [ionomycin],levels giving maximal activation of syntaxin-1A production,syntaxin-1A [1],50 to 200 nM
ω Agatoxin IVA,"syntaxin-1A expression (basal, calcium dependent)",syntaxin-1A [2]; cerebellar granule cells,inhibited
Cn1c(=O)c2c(ncn2C)n(C)c1=O [caffeine],calcium release from ryanodine- and IP3-sensitive stores,syntaxin-1A [1]; untransfected cells,activated
same,syntaxin-1A mRNA levels,syntaxin-1A [1],stimulated
CC(=O)OCOC(=O)CN(CC(=O)OCOC(C)=O)c1ccccc1OCCOc1ccccc1N(CC(=O)OCOC(C)=O)CC(=O)OCOC(C)=O [BAPTA-AM],calcium dependent induction of syntaxin-1A,syntaxin-1A [3],blocked

# — US6531288B1, “Methods to identify compounds that affect the expression level of the syntaxin-1 A encoding gene” (University of British Columbia, priority 1999, dated 2003)
